From patent US20210244738A1, “COMPOSITIONS AND METHODS FOR SUPPRESSING NONSENSE MUTATIONS” (The UAB Research Foundation, priority 2018, published 2021)

What was measured:
[1] = tested on: W134X NanoLuc RT/NMD reporter; assay: W134X NanoLuc readthrough/NMD reporter screen in Fischer rat thyroid cells; assay type: cell-based; conditions: NanoLuc activity; for +G418 Fold-Increase (Rel. to G418): drug conc. 60 μM combined with G418 100 μg/ml
Method: Equal numbers of the W134X NanoLuc RT/NMD monoclonal reporter cells were seeded into 96-well plates and cultured without zeocin for 24 hours. The cells were then treated with screening compounds for 24-hours. Dimethylsulfoxide served as the vehicle in which compounds were administered at a final concentration of 60 μM or 30 μg/ml. After treatment, the cells were washed once with phosphate-buffered saline, followed by incubation with passive lysis buffer (PLB) (Promega, E1941) for 20 minutes at room temperature. NanLuc activity in cell lysates was assayed with the Nano-Glo Luciferase Assay System (Promega, N1120) using the GloMax® Discover System (Promega). NanoLuc activity was normalized to the lysate protein concentration, which was determined by the Bio-Rad Protein Assay Reagent (Bio-Rad, 500-006).
In order to identify new compounds with the ability to suppress PTCs by inducing readthrough, inhibiting NMD, or both, a NanoLuc reporter that harbors a point mutation at codon W134 was utilized, resulting in the introduction of a UGA termination codon (W134X) into the NanoLuc cDNA. This NanoLuc construct was fused in-frame to a human β-globin construct containing intronic regions, which allows the W134X PTC to elicit exon-junction-complex dependent NMD (FIG. 1A). This NanoLuc readthrough/NMD reporter was stably expressed in Fischer rat thyroid cells, which were used to screen a 10,000 low molecular weight compound library for compounds that increase NanoLuc activity in treated cells relative to a vehicle control.

[2] = tested on: cystic fibrosis patients who carry a PTC; conditions: Kerem et al. 2014; cited from earlier work
[3] = Hirawat et al. 2004, 2007; cited from earlier work
[4] = tested on: Idua mRNA in wildtype MEFs; assay: Steady state Idua mRNA by qPCR in wildtype MEFs; assay type: cell-based, mouse; conditions: 48 hours, compared to the vehicle alone control
Method: Total RNA was isolated from MEFs using the Ambion RiboPure kit and DNase-treated using the Turbo DNA-Free kit. Polyadenylated RNA was reverse transcribed into cDNA in a 50 μl reaction containing […] of total RNA; 0.5 mg/ml oligo dT; 1.2 mM dNTPs; 40 U RNasin (Promega); […] of 5×AMV RT buffer and 40 U AMV reverse transcriptase (Promega), RT reactions were incubated at 42° C. for 1.5 hours, and then heat inactivated at 65° C. for 15 minutes. The cDNA was ethanol precipitated and subjected to qPCR in a 25 μl reaction containing 12.5 μl iQ SYBR Green Supermix (Bio-Rad); 0.2 mM of each forward and reverse primer; and […] of cDNA. […]
Melt curve analysis was initially performed with each primer set to verify that only one gene product was generated from the PCR reactions. […] The average quantification cycle (Cq) was determined for each mRNA, and mRNA quantification was performed using the Livak (DDCq) method (Livak K J, et al. (2001) Methods. 25(4):402-8), where Gapdh and Rpl13a served as normalization controls.

Idua-KO MEFs [5] = assay: α-L-iduronidase activity in Idua-KO MEFs; assay type: cell-based, mouse; conditions: 48 hours (FIG. 7A)
Method: MEFs were seeded into 6-well culture dishes at a density of 1.5×10^5 cells per well. MEFs were grown to 50% confluency and then treated with screening agents for 48 hours. MEFs were subsequently washed with PBS and lysed in Mammalian Protein Extraction Reagent (Pierce) containing a protease inhibitor cocktail (Roche). The total protein concentration was determined using the Bio-Rad Protein Assay, Approximately 75 micrograms of total lysate protein was incubated in a 70-microliter reaction containing 0.12 mM 4-methyl-umbelliferyl-α-L-iduronide (Gold Biotech) and 0.42 mg/ml of D-saccharic acid 1,4-lactone monohydrate (a β-glucuronidase inhibitor) (Sigma 50375) in 130 mM sodium formate buffer, pH 3.5. The reaction was incubated for 72 hours at 37° C. and then quenched with 300 μl of glycine buffer, pH 10.8. 200 μl of each sample was transferred to a 96-well plate (Corning 3631) and fluorescence was measured at an excitation=365 nm and an emission=450 nm using the GloMax® Discover System (Promega). Free acid 4-methylumbelliferone (FMU) (Sigma M1381) in glycine buffer was used to generate a standard curve.

Idua-KO MEFs [6] = assay: GAG levels in Idua-KO MEFs; assay type: cell-based, mouse; conditions: 48 hours (FIG. 7B)
Method: MEFs were grown to 50% confluency and then treated with screening agents for 48 hours.

Verteporfin
+G418 Fold-Increase (Rel. to G418) [1]: 7.1 fold | Drug Alone Fold-Increase (Rel. to Basal) ([1]; drug conc. 60 μM, 24 h): 4.3 fold

CCCn1c(=O)c2[nH]c(-c3cnn(Cc4cccc(C(F)(F)F)c4)c3)nc2n(CC)c1=O [GS-6201]
+G418 Fold-Increase (Rel. to G418) [1]: 13.6 fold | Drug Alone Fold-Increase (Rel. to Basal) ([1]; drug conc. 60 μM, 24 h): 10.3 fold

Cc1ccc(NC(=O)c2ccc(CN3CCN(C)CC3)cc2)cc1Nc1nccc(-c2cccnc2)n1 [Imantinib]
+G418 Fold-Increase (Rel. to G418) [1]: 19.1 fold | Drug Alone Fold-Increase (Rel. to Basal) ([1]; drug conc. 60 μM, 24 h): 4.6 fold

COc1cc2c(N3CCN(C(=O)Nc4ccc(OC(C)C)cc4)CC3)ncnc2cc1OCCCN1CCCCC1 [Tandutinib]
+G418 Fold-Increase (Rel. to G418) [1]: 7.8 fold | Drug Alone Fold-Increase (Rel. to Basal) ([1]; drug conc. 60 μM, 24 h): 3.8 fold

C=CCN1CC[C@]23c4c5ccc(O)c4O[C@H]2/C(=N/N=C2\CC[C@@]4(O)[C@H]6Cc7ccc(O)c8c7[C@@]4(CCN6CC=C)[C@H]2O8)CC[C@@]3(O)[C@H]1C5 [Naloxonazine]
+G418 Fold-Increase (Rel. to G418) [1]: 5.8 fold | Drug Alone Fold-Increase (Rel. to Basal) ([1]; drug conc. 60 μM, 24 h): 2.7 fold

O=C(O)c1cccc(-c2noc(-c3ccccc3F)n2)c1 [ataluren]
lung function [2]: did not significantly improve lung function | toxicity / safety for clinical use [3]: non-toxic and safe for clinical use

CN[C@@H]1[C@@H](O)[C@@H](O[C@@H]2[C@@H](O)[C@H](O[C@H]3O[C@H]([C@@H](C)O)[C@@H](O)[C@H](O)[C@H]3N)[C@@H](N)C[C@H]2N)OC[C@]1(C)O [G418 alone]
Drug Alone Fold-Increase (Rel. to Basal) ([1]; readthrough control at 100 μg/ml): 24 fold

COc1cc2c(cc1OC)CN(CCc1ccc(NC(=O)c3cccc4c(=O)c5cccc(OC)c5[nH]c34)cc1)CC2 [Elacridar]
+G418 Fold-Increase (Rel. to G418) [1]: 6.0 fold | Drug Alone Fold-Increase (Rel. to Basal) ([1]; drug conc. 60 μM, 24 h): 4.8 fold

COc1cc2nc(N3CCN(C(=O)C4COc5ccccc5O4)CC3)nc(N)c2cc1OC (stereo not shown) [Doxazocin]
+G418 Fold-Increase (Rel. to G418) [1]: 10.3 fold | Drug Alone Fold-Increase (Rel. to Basal) ([1]; drug conc. 60 μM, 24 h): 4.1 fold | change of Idua mRNA levels [4]: slightly increased Idua mRNA levels

CN1CC(=O)N2[C@H](c3ccc4c(c3)OCO4)c3[nH]c4ccccc4c3C[C@@H]2C1=O [Tadalafil]
+G418 Fold-Increase (Rel. to G418) [1]: 6.3 fold | Drug Alone Fold-Increase (Rel. to Basal) ([1]; drug conc. 60 μM, 24 h): 2.3 fold

Nc1nc(N)c2nc(-c3ccccc3)c(N)nc2n1 [Triamterene, 2,4,7-triamino-6-phenylpteridine]
+G418 Fold-Increase (Rel. to G418) [1]: 15.7 fold | Drug Alone Fold-Increase (Rel. to Basal) ([1]; drug conc. 60 μM, 24 h): 13.4 fold | change of Idua mRNA levels [4]: did not significantly change Idua mRNA levels | α-L-iduronidase activity (Idua-KO MEFs [5]): slight increases in α-L-iduronidase | reduction in GAGs (Idua-KO MEFs [6]): little to no reduction in GAGs
